Test system: female NMRI mice
Test: Anorectic effect: cumulative condensed milk consumption after oral administration
Assay type: in vivo
Conditions: food withdrawn 24 hours, oral dose 50 mg/kg by gavage
Description: The anorectic effect was tested on female NMRI mice. After withdrawal of food for 24 hours, the test product was administered by gavage. The animals were housed singly with free access to drinking water and were offered condensed milk 30 minutes after administration of the product. The condensed milk consumption was determined every half hour for 7 hours, and the general wellbeing of the animals was observed. The measured milk consumption was compared with the vehicle-treated control animals.

Structure (SMILES): COc1ccc(Cl)cc1S(=O)(=O)N1CCC(=O)N2C(Cc3ccc(Cl)cc3)C(=O)N(C(C)C)CC21 (centres unmarked) [Example 2, 6-(4-Chlorobenzyl)-1-(5-chloro-2-methoxybenzenesulfonyl)-8-isopropylhexahydropyrazino[1,2-a]pyrimidine-4,7-dione]
- Reduction in the cumulative milk consumption as % of the control (milk consumption over 7 hours): 11 % of the control
- cumulative milk consumption of the treated animals (over 7 hours, N=10, control animals 5.48 ml): 10/4.90 ml

Reference: patent US7750005B2, “Substituted hexahydropyrazino [1,2-A] pyrimidine-4,7-dione derivatives, process for their preparation and their use as medicaments” (Sanofi-Aventis Deutschland GmbH, priority 2003, dated 2010)
